Reference: article PMC8831520, “Small molecule SWELL1 complex induction improves glycemic control and nonalcoholic fatty liver disease in murine Type 2 diabetes” (Nature Communications, 2022)
Where “and” joins values, the source holds several entries; their conditions need not be identical. Equal values may be shown once. Entries after “also recorded” stand apart in the source; their conditions may differ.

Columns and labels:
[1] = system: insulin-AKT2-AS160 signaling in 3T3-F442A cells; assay: Insulin-stimulated AKT2-AS160 signaling western blot; format: cell-based, murine; details: 96 h
Protocol: Adipocytes were washed twice in ice-cold phosphate buffer saline and lysed in RIPA buffer (150 mM NaCl, 20 mM HEPES, 1% NP-40, 5 mM EDTA, pH 7.4) with proteinase/phosphatase inhibitors (Roche). The cell lysate was further sonicated in 10 s cycle intervals 2–3 times and centrifuged at 18,407×g for 30 min at 4 °C and repeated one more time to remove the excess fat. The supernatant was collected and further estimated for protein concentration using a DC protein assay kit (Bio-Rad). Fat and liver tissues were homogenized and suspended in RIPA buffer with inhibitors and further processed in a similar fashion as described above. HUVECs were also prepared in a similar fashion except the lysates were spun only once to remove the cells debris to obtain the clear supernatant. For islets, either human or mouse islets were washed twice with phosphate buffer saline (PBS) and lysed using RIPA buffer containing protease and phosphatase inhibitors. The lysate was further clarified by freezing in liquid nitrogen for about 10 s for three cycles. The supernatant was collected from the whole lysate centrifuged at 16,260×g for 20 min at 4 °C. […] For soleus muscle, the tissue was homogenized in a Bullet Blender homogenizer (Speed-9, Time-3 mins) in 8 volumes of ice-cold muscle homogenization buffer (50 mM Tris, 25 mM NaCl, 0.2% Nonidet P-40, 5 mM EGTA, 2.5 mM EDTA, 20 mM NaF, 20 mM Na4P2O7·10H2O, 2 mM Na3VO4, pH 7.4) supplemented with protease/phosphatase inhibitor (Roche). The homogenized lysate was centrifuged two times at 18,500×g for 20 min at 4 °C and supernatant was collected for protein estimation. Protein samples were further prepared by boiling in 2X or 4X Laemmli buffer. Approximately 10–60 µg of total protein was loaded in 4–15% gradient gel (Bio-Rad) for separation and protein transfer was carried out onto the PVDF membranes (Bio-Rad). […] The images were further analyzed for band intensities using ImageJ software. […]

eWAT adipocytes = assay: Adipocyte size in eWAT of treated mice; format: in vivo, mouse; details: 5 days, vs vehicle
Protocol: Mice epididymal white adipose tissue (eWAT) was isolated and fixed in 10% neutral buffer formalin for 24 h at 4 °C. The formalin-fixed eWAT tissue was washed twice with 1XPBS buffer and dehydrated in a series of ethanol gradient. The dehydrated tissue was embedded in paraffin wax and 10 μm sections were cut by automated microtome and mounted on positively charged slides. Hematoxylin and eosin staining of the slides was performed at the Musculoskeletal Research Center, Washington University in St. Louis. Images were captured by Zeiss Axioscop with 10X objective and analyzed by ImageJ software. Measurement of adipocyte area was performed using the polygon selection tool of ImageJ. All quantifications were performed by blinded independent observers.

[2] = Tolerability of chronic i.p. dosing; format: in vivo, mouse; details: daily i.p. injections for up to 8 weeks
Protocol: All compounds were dissolved in Kolliphor® EL (Sigma, #C5135).

SWELL1 protein = system: T1, SWELL1 protein; assay: SWELL1 protein in skeletal muscle and liver of treated T2D mice; format: in vivo, mouse
T1 construct: from tissue; host or cells: soleus muscle of HFD-T2D mice; liver of T2D KKA^y mice
Protocol: Adipocytes were washed twice in ice-cold phosphate buffer saline and lysed in RIPA buffer (150 mM NaCl, 20 mM HEPES, 1% NP-40, 5 mM EDTA, pH 7.4) with proteinase/phosphatase inhibitors (Roche). The cell lysate was further sonicated in 10 s cycle intervals 2–3 times and centrifuged at 18,407×g for 30 min at 4 °C and repeated one more time to remove the excess fat. The supernatant was collected and further estimated for protein concentration using a DC protein assay kit (Bio-Rad). Fat and liver tissues were homogenized and suspended in RIPA buffer with inhibitors and further processed in a similar fashion as described above. HUVECs were also prepared in a similar fashion except the lysates were spun only once to remove the cells debris to obtain the clear supernatant. For islets, either human or mouse islets were washed twice with phosphate buffer saline (PBS) and lysed using RIPA buffer containing protease and phosphatase inhibitors. The lysate was further clarified by freezing in liquid nitrogen for about 10 s for three cycles. The supernatant was collected from the whole lysate centrifuged at 16,260×g for 20 min at 4 °C. […] The images were further analyzed for band intensities using ImageJ software. […]

HFD-T2D mice = assay: NAFLD in HFD-fed mice: liver triglycerides, histology, NAS; format: in vivo, mouse
Protocol: Gross liver weights were measured and identical sections from the right medial lobe of the liver were dissected for further examinations. Total triglyceride content was determined by homogenization of 10–50 mg of tissue in 1.5 ml of chloroform:methanol (2:1 v/v) followed by centrifugation at 16,260×g for 10 min at 4 °C. A 20 µl of the supernatant was evaporated in a 1.5 ml microcentrifuge tube for 30 min. Triglyceride content was determined by adding 100 µl of Infinity Triglyceride Reagent (Fisher Scientific) to the dried sample followed by 30 min incubation at RT. The samples were then transferred to a 96-well plate along with standards (0–2000 mg/dl) and absorbance was measured at 540 nm and the final concentration was determined by normalizing to tissue weight. For histological examination, liver sections were fixed in 10% zinc formalin and paraffin-embedded for sectioning. Hematoxylin and eosin (H&E) stained sections were then assessed for steatosis grade, lobular inflammation, and hepatocyte ballooning for nonalcoholic fatty liver disease (NAFLD) scoring[46],[95],[96].

T2D KKAy mice = assay: Plasma adiponectin and FGF21 ELISA; format: in vivo, mouse; details: 5 mg/kg i.p. daily × 5 days, vs vehicle
Protocol: Plasma adiponectin and FGF21 levels were measured using Mouse Adiponectin/Acrp30 Quantikine ELISA (Bio-Techne R&D Systems, MRP300) and mouse/rat FGF21 ELISA (BioVendor R&D, RD291108200R) kits respectively, as per the manufacturer’s instructions.

ICl,SWELL = system: ICl,SWELL; parameters: method as in PMID 11724753; details: cited from earlier work

CCCCC1(C2CCCC2)Cc2cc(OCCCC(=O)O)c(Cl)c(Cl)c2C1=O (stereo not drawn) [SN-401, 4-((2-butyl-6,7-dichloro-2-cyclopentyl-1-oxo-2,3-dihydro-1H-inden-5-yl)oxy)butanoic acid]
insulin-stimulated levels of pAS160 ([1]; 500 nM, WT adipocytes): enhanced
insulin-stimulated levels of pAKT2 ([1]; 10 µM preadipocytes, 500 nM adipocytes): enhanced
effects on insulin-AKT2-AS160 signaling in SWELL1 KO adipocytes ([1]; SWELL1 KO 3T3-F442A adipocytes, 500 nM): absent
adipocyte size (eWAT adipocytes; HFD-fed mice): unchanged; also recorded: no significant differences
adipocyte size reduction (eWAT adipocytes; KKAy mice): 9%
tolerability [2]: no overt signs of toxicity
SWELL1 induction in skeletal muscle (SWELL1 protein; HFD-T2D mice (18 weeks HFD), 5 mg/kg i.p. 4 days): trend toward SN-401 mediated SWELL1 induction
hepatic SWELL1 protein (SWELL1 protein; T2D KKAy mice, 5 mg/kg i.p. 5 days): does not induce
reduction in body weight compared to vehicle (HFD-T2D mice; 16 weeks HFD then intermittent dosing over 5 weeks): 14%
improvement of NAFLD-activity score (NAS) (HFD-T2D mice; 16 weeks HFD then intermittent dosing over 5 weeks, vs vehicle): > 2 points
hepatic steatosis and hepatocyte damage (HFD-T2D mice; histologic evaluation, vs vehicle): significant reductions
hepatic triglyceride concentrations (HFD-T2D mice; vs vehicle): lower
serum FGF21 increase (T2D KKAy mice): 2.8 fold and 3 fold
serum adiponectin (T2D KKAy mice): unchanged; also recorded: no differences
IC50 (ICl,SWELL): ~5 µM
